Reference: US20070104716A1, “Methods for controlling pathological angiogenesis by inhibition of a6b4 integrin” (SLOAN-KETTERING INSTITUTE FOR CANCER RESEARCH, priority 2003, published 2007)

Test system: HUVECs expressing wild-type α6β4
Experiment: in vitro wound closure (migration) assay on laminin-5 in response to bFGF
Format: cell-based, Human
Conditions: plated on laminin-5, bFGF, wound closure at 8 hours (FIG. 4A)
Protocol: When indicated, migrating cells were treated with the NF-kB inhibitor BAY 11-7082 ([…]) or the MAPK inhibitor PD98059 (50 μM).
To examine the effect of α6β4 signaling on endothelial cell migration, parental HUVECS and their derivatives expressing either wild-type or mutant α6β4 were plated on laminin-5 at confluency and subjected to in vitro wound assay. Expression of wild-type α6β4 increased endothelial cell migration in response to bFGF.
To examine the role of ERK and NF-OB signaling in endothelial cell migration, HUVECs expressing wild-type α6β4 were subjected to in vitro wound closure assay in the presence of the MEK inhibitor PD98059 or the NF-kB inhibitor BAYI 1-072.
HUVECs were electroporated with equimolar amounts of plasmids encoding α6 and either β4 or β4-1355T (Dans et al., 2001), deprived of growth factors for 18 hours, and then panned on plates coated with the anti-β4 mAb 3E1. Bound cells were washed with PBS and recovered by trypsin-EDTA treatment. For in vitro wound assays, equal numbers of cells expressing wild-type β4 or mutant β4-1355T were plated on dishes coated with laminin-5, grown until confluent, and starved. […] Wound closure was monitored by digital photography. […] HUVECS Invasion was quantified 72 hours later by counting the average number of capillary-like structures per microcarrier bead.

Row | Structure (SMILES) | migration of α6β4-expressing HUVECs (wound closure) (BAY 11-7082 12.5PM) | migration of α6β4-expressing HUVECs (wound closure) (PD98059 50 μM)
1 | Cc1ccc(S(=O)(=O)/C=C/C#N)cc1 [BAYI 1-072] | reduced the migration of α6β4-expressing HUVECs to levels similar to those displayed by control HUVECs or HUVECs expressing mutant α6β4 | 
2 | COc1cccc(-c2cc(=O)c3ccccc3o2)c1N [PD98059] |  | reduced the migration of α6β4-expressing HUVECs to levels similar to those displayed by control HUVECs or HUVECs expressing mutant α6β4
